Key:
[1] = test system: human MCF-7 breast tumor cells; settings: MCF-7 cells in alginate-poly-L-lysine-alginate microcapsules, MTT assay; cited from earlier work
[2] = test system: A549 human lung cells; settings: cited from earlier work
[3] = test system: LCC6/Her2 breast tumor cells; test: Cell proliferation rate of tumor spheroids on-chip from confocal cell counts; format: cell-based, human; settings: 1600 nM Dox exposure, 2 days
Description: (§1) Doxorubicin (Dox) is an anthracycline molecule that intercalates in DNA and inhibits topoisomerase II. As an anticancer agent, the drug inhibits RNA and DNA synthesis. During on-chip drug testing, the Dox solution was prepared with 0.2% dimethylsulfoxide (DMSO) and DMEM culture medium. After visual confirmation of spheroid formation at four days, the drug-free culture media was replaced with 400, 800, 1200, and 1600 nM Dox solutions. The drug solution was continuously perfused through the device at a rate of 0.25 μl min^−1 for two days. DMSO controls, in which the corresponding amount of DMSO in culture medium with no drug, were also carried out. Toxicity was examined after 48 h of drug dosing by quantifying cell viability.
All stained samples were imaged using fluorescence microscopy. The imaging system consisted of a fluorescent microscope (Nikon TE2000U) and a cooled, color CCD camera (Retiga). […] The number of living cells NG was calculated by counting the number of pixels in the green (living cells) channel in the confocal images and normalizing for the size of one cell. The number of dead cells NR was similarly calculated using the red pixels. […]
The survival rate was calculated as NG/(NG+NR). The proliferation rate is calculated as (N4−N1)/N1 before drug treatment, and as (N6−N4)/N4 after drug treatment, where Nx is the number of cells on the xth day. […]

[4] = test system: EMT-6 mammary sarcoma cells; settings: EMT-6 spheroids created in a spinner flask, different exposure doses; cited from earlier work
[5] = in vitro; format: cell-based; settings: human
Description: as §1
(§2) Cell viability was indicated with live/dead calcein AM/ethidium homodimer-1 stains (Invitrogen), which were applied through pressure-driven flow control to the cells while they were entrapped in alginate in the microdevice. […]
(§3) All stained samples were imaged using fluorescence microscopy. […] The number of living cells NG was calculated by counting the number of pixels in the green (living cells) channel in the confocal images and normalizing for the size of one cell. The number of dead cells NR was similarly calculated using the red pixels. […]
(§4) The survival rate was calculated as NG/(NG+NR). The proliferation rate is calculated as (N4−N1)/N1 before drug treatment, and as (N6−N4)/N4 after drug treatment, where Nx is the number of cells on the xth day.
(§5) Images from confocal microscopy were used to determine cell survival rate and proliferation inside the three dimensional multicellular aggregates after exposure to different doxorubicin concentrations. […] Doxorubicin was the perfused with (a) 0, (b) 400, (c) 800, (d) 1200, and (e) 1600 nM doxorubicin for two days, and cell viability was measured at the end of that period after staining with a live/dead viability kit and confocal imaging. […] The number of living cells NG was calculated by counting the number of pixels (living cells) channel in the confocal image and normalizing for the size of one cell. […]

[6] = test system: LCC6/Her2 cells; test: MTS assay of cell activity, cells cultured within alginate gel beads; format: cell-based, human; settings: 48 h treatment with 800 nM doxorubicin
Description: as §1
For LCC6/Her2 cells cultured within alginate gel beads 100, cell activity as measured using the standard MTS assay was 35%, while cell viability as measured using the Live/Dead stains was 83%, in both cases after 48 h treatment with 800 nM doxorubicin. […] Thus, the absolute number of surviving cells, in addition to the percentage of living or dead cells, may be an important parameter in drug screening. This can be obtained by processing the data from image-based high-throughput screening systems.

[7] = test system: LCC6/Her2 breast tumor cells; test: in vitro; format: cell-based
Description: as §1, §2, §3, §4, §5

[8] = at 25° C.; cited from earlier work

## CO[C@@]12[C@H](COC(N)=O)C3=C(C(=O)C(C)=C(N)C3=O)N1C[C@@H]1N[C@@H]12 [mitomycin C]
[1]
  inhibition rates in multicellular spheroids versus monolayers: lower inhibition rates in multicellular spheroids than in monolayers

## O=c1[nH]cc(F)c(=O)[nH]1 [5-fluorouracil]
[1]
  inhibition rates in multicellular spheroids versus monolayers: lower inhibition rates in multicellular spheroids than in monolayers

## COc1cccc2c1C(=O)c1c(O)c3c(c(O)c1C2=O)C[C@@](O)(C(=O)CO)C[C@@H]3O[C@H]1C[C@H](N)[C@H](O)[C@H](C)O1 [doxorubicin, Doxorubicin]
[2]
  multicellular resistance index, ratio [IC50, spheroid/IC50, monolayer]: 35
[3]
  proliferation rate change (FIG. 10): marked proliferation decrease
[4]
  resistance of spheroids versus monolayer cells: higher resistance
[5]
  cytotoxicity at 48 h, 1600 nM: 20%
  viability at 48 h, 800 nM: 83%
[1]
  inhibition rates in multicellular spheroids versus monolayers: lower inhibition rates in multicellular spheroids than in monolayers
[6]
  cell activity as measured using the standard MTS assay: 35%

## CCCCCCCCCCCCCCCC [Hexadecane, n-hexadecane]
[7]
  additional toxicity from droplet formation solvent (survival rate, bead versus microchannel): did not indicate any additional toxicity effects
[8]
  solubility in the aqueous phase: 9.0×10^−8 g/100 g water

## CC[C@]1(O)C[C@@H]2CN(CCc3c([nH]c4ccccc34)[C@@](C(=O)OC)(c3cc4c(cc3OC)N(C)[C@H]3[C@@](O)(C(=O)OC)[C@H](OC(C)=O)[C@]5(CC)C=CCN6CC[C@]43[C@@H]65)C2)C1 [vinblastine]
[2]
  multicellular resistance index, ratio [IC50, spheroid/IC50, monolayer]: 6625
